#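 Values below derive from 48-hour exposures of cells grown in 96-well plates, with endpoints linearly interpolated between the two concentrations bracketing the appropriate inhibition level. TGI: concentration producing complete growth inhibition.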
# Experiments:
# Assay in all cases: inhibition of tumour cell growth, NCI panel, 48 h
# [1] = system: 786-0 renal
# [2] = system: A498 renal
# [3] = system: A549 NSCLC
# [4] = system: ACHN renal
# [5] = system: BT-549 breast
# [6] = system: CAKI-1 renal
# [7] = system: CCRF-CEM leukemia
# [8] = system: COLO 205 colon
# [9] = system: DU-145 prostate
# [10] = system: EKVX NSCLC
# [11] = system: HCC-2998 colon
# [12] = system: HCT-116 colon
# [13] = system: HCT-15 colon
# [14] = system: HL-60(TB) leukemia
# [15] = system: HOP-62 NSCLC
# [16] = system: HOP-92 NSCLC
# [17] = system: HS 578T breast
# [18] = system: HT29 colon
# [19] = system: IGROV1 ovarian
# [20] = system: K-562 leukemia
# [21] = system: KM12 colon
# [22] = system: LOX IMVI melanoma
# [23] = system: M14 melanoma
# [24] = system: MALME-3M melanoma
# [25] = system: MCF7 breast
# [26] = system: MDA-MB-231 breast
# [27] = system: MDA-MB-435
# [28] = system: MDA-N
# [29] = system: MOLT-4 leukemia
# [30] = system: NCI-H226 lung
# [31] = system: NCI-H23 lung
# [32] = system: NCI-H460 lung
# [33] = system: NCI-H522 lung
# [34] = system: NCI/ADR-RES ovarian
# [35] = system: OVCAR-3 ovarian
# [36] = system: OVCAR-4 ovarian
# [37] = system: OVCAR-5 ovarian
# [38] = system: OVCAR-8 ovarian
# [39] = system: PC-3 prostate
# [40] = system: RPMI-8226 leukemia
# [41] = system: RXF 393 renal
# [42] = system: SF-268 CNS
# [43] = system: SF-295 CNS
# [44] = system: SF-539 CNS
# [45] = system: SK-MEL-2 melanoma
# [46] = system: SK-MEL-28 melanoma
# [47] = system: SK-MEL-5 melanoma
# [48] = system: SK-OV-3 ovarian
# [49] = system: SN12C renal
# [50] = system: SNB-19 CNS
# [51] = system: SNB-75 CNS
# [52] = system: SR leukemia
# [53] = system: SW-620 colon
# [54] = system: T-47D breast
# [55] = system: TK-10 renal
# [56] = system: U251 CNS
# [57] = system: UACC-257 melanoma
# [58] = system: UACC-62 melanoma
# [59] = system: UO-31 renal
structure (smiles),measurement,setting,value
CCOC(=O)/C(C#N)=C/c1ccc2c(c1)CC1(C2)Cc2cc(CC)c(C(C)O)cc2C1 (stereo unspecified),TGI,[1],39 µM
same,TGI,[2],> 90.4 µM
same,TGI,[3],> 100 µM
same,TGI,[4],> 85.1 µM
same,TGI,[5],23.4 µM
same,TGI,[6],> 100 µM
same,TGI,[7],27.2 µM
same,TGI,[8],66.2 µM
same,TGI,[9],56.1 µM
same,TGI,[10],> 100 µM
same,TGI,[11],> 80.9 µM
same,TGI,[12],15 µM
same,TGI,[13],20 µM
same,TGI,[14],8.51 µM
same,TGI,[15],36 µM
same,TGI,[16],47.9 µM
same,TGI,[17],60.8 µM
same,TGI,[18],39.5 µM
same,TGI,[19],57 µM
same,TGI,[20],> 52.5 µM
same,TGI,[21],38.8 µM
same,TGI,[22],22 µM
same,TGI,[23],16.8 µM
same,TGI,[24],24.4 µM
same,TGI,[25],23.9 µM
same,TGI,[26],27.1 µM
same,TGI,[27],4.83 µM
same,TGI,[28],5.16 µM
same,TGI,[29],> 58.6 µM
same,TGI,[30],> 64.6 µM
same,TGI,[31],39.5 µM
same,TGI,[32],77.1 µM
same,TGI,[33],> 100 µM
same,TGI,[34],55.9 µM
same,TGI,[35],22.4 µM
same,TGI,[36],49 µM
same,TGI,[37],> 93.1 µM
same,TGI,[38],44.4 µM
same,TGI,[39],56.8 µM
same,TGI,[40],51.6 µM
same,TGI,[41],38.5 µM
same,TGI,[42],32.1 µM
same,TGI,[43],44.3 µM
same,TGI,[44],22.1 µM
same,TGI,[45],27.2 µM
same,TGI,[46],38.9 µM
same,TGI,[47],16.8 µM
same,TGI,[48],98.2 µM
same,TGI,[49],32.4 µM
same,TGI,[50],43.8 µM
same,TGI,[51],46.3 µM
same,TGI,[52],> 28.9 µM
same,TGI,[53],22.5 µM
same,TGI,[54],> 100 µM
same,TGI,[55],84.2 µM
same,TGI,[56],20.3 µM
same,TGI,[57],45.6 µM
same,TGI,[58],29.5 µM
same,TGI,[59],60.8 µM
CCOC(=O)C(=O)C(CCC(=O)c1ccc2ccccc2c1O)C(=O)OCC (stereo unspecified),TGI,[1],> 100 µM
same,TGI,[2],> 100 µM
same,TGI,[3],> 100 µM
same,TGI,[4],> 100 µM
same,TGI,[5],> 100 µM
same,TGI,[6],> 100 µM
same,TGI,[7],> 100 µM
same,TGI,[8],> 100 µM
same,TGI,[9],> 100 µM
same,TGI,[10],> 100 µM
same,TGI,[11],> 100 µM
same,TGI,[12],> 100 µM
same,TGI,[13],> 100 µM
same,TGI,[14],> 100 µM
same,TGI,[16],> 100 µM
same,TGI,[17],> 100 µM
same,TGI,[18],> 100 µM
same,TGI,[19],> 100 µM
same,TGI,[20],> 100 µM
same,TGI,[21],> 100 µM
same,TGI,[22],> 100 µM
same,TGI,[23],> 100 µM
same,TGI,[24],> 100 µM
same,TGI,[25],> 100 µM
same,TGI,[26],> 100 µM
same,TGI,[27],> 100 µM
same,TGI,[28],> 100 µM
same,TGI,[29],> 100 µM
same,TGI,[30],> 100 µM
same,TGI,[31],> 100 µM
same,TGI,[32],> 100 µM
same,TGI,[33],> 100 µM
same,TGI,[34],> 100 µM
same,TGI,[35],> 100 µM
same,TGI,[36],> 100 µM
same,TGI,[37],> 100 µM
same,TGI,[38],> 100 µM
same,TGI,[39],> 100 µM
same,TGI,[40],> 100 µM
same,TGI,[41],> 100 µM
same,TGI,[42],> 100 µM
same,TGI,[43],> 100 µM
same,TGI,[44],> 100 µM
same,TGI,[45],> 100 µM
same,TGI,[46],> 100 µM
same,TGI,[47],> 100 µM
same,TGI,[48],> 100 µM
same,TGI,[49],> 100 µM
same,TGI,[50],> 100 µM
same,TGI,[51],> 100 µM
same,TGI,[52],> 100 µM
same,TGI,[53],> 100 µM
same,TGI,[54],> 100 µM
same,TGI,[56],> 100 µM
same,TGI,[57],> 100 µM
same,TGI,[58],> 100 µM
same,TGI,[59],> 100 µM

# Reference: PubChem BioAssay (NCI)
